Target: T1, CsSWEET17 (Citrus sinensis, UniProt A0ACB8I933)
T1 construct: gene KPL71_027705; full-length CDS (705 bp, about 235 residues) in pDR196, expressed in Saccharomyces cerevisiae CSY4000 (W303 for esculin); seven TMs
Assay: […]-sucrose uptake in CSY4000 yeast, nonlinear Michaelis-Menten fit
Assay type: cell-based
Conditions: pH 5.5; 30 °C; proton-coupled transport; labelled compound

T1 sequence (A0ACB8I933 entry or part of it): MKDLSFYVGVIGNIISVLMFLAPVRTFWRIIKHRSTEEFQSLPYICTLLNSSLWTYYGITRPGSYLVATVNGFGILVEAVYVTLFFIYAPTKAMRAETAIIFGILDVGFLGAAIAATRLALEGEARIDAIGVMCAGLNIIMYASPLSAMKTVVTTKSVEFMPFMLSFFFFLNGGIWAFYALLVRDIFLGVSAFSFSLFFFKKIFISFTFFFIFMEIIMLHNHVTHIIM

Km: 291 µM
Structure (SMILES): OC[C@H]1O[C@@](CO)(O[C@H]2O[C@H](CO)[C@@H](O)[C@H](O)[C@H]2O)[C@@H](O)[C@@H]1O [sucrose]

— article PMC12528650, “The CsMYB36-CsSWEET17 module mediates the calcium-induced sucrose accumulation in citrus” (Horticulture Research, 2025)
